Test results taken from publication PMC11378297, “Discovery and Profiling of New Multimodal Phenylglycinamide Derivatives as Potent Antiseizure and Antinociceptive Drug Candidates” (ACS Chemical Neuroscience, 2024).
Like-named read-outs stand apart in the source and are kept apart here.

Experiment: pharmacokinetic study in mice (serum and brain, non-compartmental analysis)
Type: in vivo, mouse
Details: for Kp / MRT / Tmax / half-life / k el / CL/F / Vd/F: male, CD-1, mouse; for Kp: brain and serum, read-out: Brain-to-serum AUC ratio; for half-life: read-out: t1/2 λz; for k el: read-out: λz (converted); for Vd/F: read-out: Vz/F
Experimental: They were housed in conditions of constant temperature with the 12:12 h light–dark cycle and free access to food and water. […] Moreover, the compound was dissolved in a mixture of DMSO/PEG400/water (1:4:5, v/v/v) and administered p.o. at a dose of 25 mg/kg. […] After allowing the blood to coagulate for 20 min at room temperature, the serum was separated using a 5000g Eppendorf miniSpin centrifuge (Germany) for 10 min. Samples were kept at −80 °C until they were analyzed. The First Ethical Committee on Animal Experimentation in Kraków granted approval for all animal treatments (license no. 270/2019). Concentrations of compound (R)-32 in mouse serum and brain tissue were measured using a liquid chromatography tandem mass spectrometry method (LC-MS/MS). Mouse brains were homogenized in distilled water at the ratio of 1:4 (w/v) using the ULTRA-TURRAX T10 basic tissue homogenizer (IKA, Germany). […] Samples were shaken for 10 min (IKA Vibrax VXR, Germany) and then centrifuged for 5 min at the speed of 8000g (Eppendorf miniSpin centrifuge, Germany). Supernatants were transferred into the autosampler vials, and a sample volume of 1 μL was injected into the LC-MS/MS system. Liquid chromatography was performed on an Exion LC AC HPLC system (Sciex, USA) with a Hypersil Gold C18 analytical column (3 × 50 mm, 5 μm, Thermo Scientific, USA). […] The initial mobile phase composition was 95% B and 5% A for the first 2 min with a linear gradient to 5% B in the next 2 min and then isocratic mode for 2 min with the following rapid change back to 95% B in 0.1 min. The remaining time of elution was set at 95% B. The whole HPLC operation lasted 10 min, and the flow rate was set to 0.4 mL/min. A QTRAP 4500 mass spectrometer (Sciex, USA) equipped with an ESI source, was used for detection. The mass spectrometric parameters were optimized to obtain maximum sensitivity at unit resolution. The ion source temperature was maintained at 450 °C, and the ion spray voltage was set to 5500 V. The CUR was set to 40 psi and the collision gas (CAD) to medium. The MRM experiments were conducted in the positive ion mode by monitoring the precursor to product ion transitions from m/z 422 to 247 (CE = 25 eV) and from m/z 422 to 106 (CE = 57 eV) for compound (R)-32 and from m/z 436 to 207 (CE = 42 eV) for IS. The working solutions for (R)-32 were created in methanol, while the stock solution was made in DMSO at a concentration of 1 mg/mL. […] Two distinct calibration curves were created for serum samples, one for greater concentrations and one for lower amounts. The precipitating agent was also diluted 10 times with calibrators and samples from the highest concentration range. […] The limits used for quantification were 0.001 to 5, 0.1 to 20 μg/mL for serum, and 0.005 to 25 μg/g for brain tissue. Samples with (R)-32 concentrations higher than the quantitative upper limit were 10-fold diluted using the blank matrix, which is either serum or brain homogenate. The method’s precision and accuracy fell within the bounds established by the FDA’s standards for the verification of bioanalytical techniques. During the normal analysis of the samples, no substantial matrix effect was identified, and no stability issues were encountered. The Analyst program version 1.7 was utilized for both data collecting and analysis. Noncompartmental analysis was used to estimate pharmacokinetic parameters of (R)-32 in serum and brain tissue. The area under the mean concentration versus time curve extrapolated to infinity (AUC0-inf) was estimated using the linear trapezoidal rule by combining trapezoid calculation of AUC0–t and the area extrapolated to infinity. The MRT was calculated from AUMC0-inf/AUC0-inf, where AUMC0-inf was estimated by calculation of the total area under the first-moment curve. The terminal slope (λz) was calculated by log–linear regression of the drug concentration versus time data in the terminal phase and the terminal half-life (t0.5) was calculated as 0.693/λz. […]

SMILES: CC(=O)N[C@@H](C(=O)N1CCN(c2cccc(OC(F)(F)F)c2)CC1)c1ccccc1 [(R)-32, (R)-N-(2-Oxo-1-phenyl-2-(4-(3-(trifluoromethoxy)phenyl)piperazin-1-yl)ethyl)acetamide]
- MRT after p.o. dosing in comparison to i.p. administration: ~4 fold
- ratios of Cmax and AUC in serum after p.o. dosing compared to i.p. administration of the same dose (25 mg/kg): lower than 0.5
- AUC0–∞ (brain, 25 mg/kg i.p.): 274,802.60 ng·min/mL(g)
- Cmax (brain, 25 mg/kg i.p.): 8266.67 ng/mL(g)
- AUC0–∞ (brain, 25 mg/kg p.o.): 156,252.29 ng·min/mL(g)
- Cmax (brain, 25 mg/kg p.o.): 1870.33 ng/mL(g)
- AUC0–∞ (brain, 50 mg/kg i.p.): 689,733.29 ng·min/mL(g)
- Cmax (brain, 50 mg/kg i.p.): 21,475.00 ng/mL(g)
- Kp (intraperitoneal, 50 mg/kg): 1.5
- Kp (ip, 25 mg/kg i.p.): 1.2
- Kp (po, 25 mg/kg p.o.): 1.3
- MRT (ip, brain, 25 mg/kg i.p.): 45.5 min
- Tmax (ip, brain, 25 mg/kg i.p.): 15 min
- half-life (ip, brain, 25 mg/kg i.p.): 80.5 min
- k el (ip, brain, 25 mg/kg i.p.): 0.00015 s⁻¹
- MRT (ip, brain, 50 mg/kg i.p.): 47.3 min
- Tmax (ip, brain, 50 mg/kg i.p.): 15 min
- half-life (ip, brain, 50 mg/kg i.p.): 62.3 min
- k el (ip, brain, 50 mg/kg i.p.): 0.000183 s⁻¹
- CL/F (ip, serum, 25 mg/kg i.p.): 110 mL/min/kg
- MRT (ip, serum, 25 mg/kg i.p.): 42.3 min
- Tmax (ip, serum, 25 mg/kg i.p.): 15 min
- Vd/F (ip, serum, 25 mg/kg i.p.): 12.3 L/kg
- half-life (ip, serum, 25 mg/kg i.p.): 77.5 min
- k el (ip, serum, 25 mg/kg i.p.): 0.00015 s⁻¹
- CL/F (ip, serum, 50 mg/kg i.p.): 108 mL/min/kg
- MRT (ip, serum, 50 mg/kg i.p.): 33.6 min
- Tmax (ip, serum, 50 mg/kg i.p.): 15 min
- Vd/F (ip, serum, 50 mg/kg i.p.): 9.97 L/kg
- half-life (ip, serum, 50 mg/kg i.p.): 64.3 min
- k el (ip, serum, 50 mg/kg i.p.): 0.000183 s⁻¹
- MRT (po, brain, 25 mg/kg p.o.): 151 min
- Tmax (po, brain, 25 mg/kg p.o.): 5 min
- half-life (po, brain, 25 mg/kg p.o.): 133 min
- k el (po, brain, 25 mg/kg p.o.): 8.33e-05 s⁻¹
- CL/F (po, serum, 25 mg/kg p.o.): 210 mL/min/kg
- MRT (po, serum, 25 mg/kg p.o.): 156 min
- Tmax (po, serum, 25 mg/kg p.o.): 5 min
- Vd/F (po, serum, 25 mg/kg p.o.): 38.5 L/kg
- half-life (po, serum, 25 mg/kg p.o.): 127 min
- k el (po, serum, 25 mg/kg p.o.): 8.33e-05 s⁻¹
- Tmax (serum, other: both i.p. and p.o., after both i.p. and p.o. dosing): ≤ 15 min
- AUC0–∞ (serum, 25 mg/kg i.p.): 228,063.48 ng·min/mL(g)
- Cmax (serum, 25 mg/kg i.p.): 7613.33 ng/mL(g)
- AUC0–∞ (serum, 25 mg/kg p.o.): 118,998.11 ng·min/mL(g)
- Cmax (serum, 25 mg/kg p.o.): 1266.00 ng/mL(g)
- AUC0–∞ (serum, 50 mg/kg i.p.): 464,877.54 ng·min/mL(g)
- Cmax (serum, 50 mg/kg i.p.): 15,900.00 ng/mL(g)
